# Measured values as given in patent publication US11179663B1, “Polyurethane-based materials” (Aviro LLC, priority 2021, dated 2021).
# Tests used:
# COVID-19 [1] = assay: coronavirus capture (attachment) test on coated surfaces, crystal violet stain read by spectrophotometer; details: FIG. 1; virus capture by coated surfaces
# COVID-19 [2] = assay: coronavirus deactivation test after attachment to the surfaces, qPCR for genes indicative of COVID-19 activity; details: FIG. 2; compared among the antiviral coatings
SMILES,SARS-Cov2 capture (COVID-19 [1]),potential to deactivate captured virus (COVID-19 [2])
"CCCCCCCCCCCCCCCC[n+]1ccccc1 [CPC, Cetyl pyridinium chloride]",roughly 95%,
"CCCCCCCCCCCCCCCCCC[N+](C)(C)CCC[Si](OC)(OC)OC.[Cl-] [DMS, Dimethyloctadecyl[3-(trimethoxysilyl)propyl]ammonium chloride]",,highest potential to deactivate
